Test results: publication PMC5490399, “Glycosaminoglycan Binding and Non-Endocytic Membrane Translocation of Cell-Permeable Octaarginine Monitored by Real-Time In-Cell NMR Spectroscopy” (Pharmaceuticals, 2017)
Non-standard residues stand in square brackets, D forms with d. Residues, ends and D or L forms follow the SMILES beside them. Phe(4-CF3) = N[C@@H](Cc1ccc(C(F)(F)F)cc1)C(=O)O

How the values were obtained:
Format in all cases: cell-based, human
HL60 cells [1] = experiment: Steady state 19F NMR after cell fractionation (final distribution); conditions: 19F NMR at 4 °C
Protocol: In the previous sections, we succeeded in comprehensive observation and quantitative analysis of the non-endocytic translocation of ^19F-R8 to the cell inside. To confirm that ^19F-R8 is actually transferred to cytosol across the cell membrane, the final distribution of ^19F-R8 was evaluated by cell fractionation after equilibrium was attained in real-time NMR measurements. Membrane solubilization and centrifugation techniques were combined in accordance with Scheme 1. First, we examined how much of ^19F-R8 was finally bound to cells. In Figure 7a, the ^19F NMR spectra of ^19F-R8 in the supernatant I is compared with total ^19F-R8 as a control at 4 °C. The ^19F NMR signal intensity of the supernatant I corresponds to ^19F-R8 that is still in a free (unbound) state under equilibrium. […] The value is consistent with the result of the real-time in-cell NMR measurement showing about 65 μM (81%) of ^19F-R8 is remaining in a free state after the equilibrium is attained (Figure 6). Next, to confirm that ^19F-R8 is actually bound to HL60 cell, the cell pellet I was solubilized by lysis buffer containing 1% Triton X-100. After the centrifugation, the supernatant II was subject to ^19F NMR measurement at 4 °C. The spectrum is shown in Figure 7b as Lysate, and 13% of the initial ^19F-R8 was detected.
It is considered that three components of ^19F-R8 are contained in the Lysate. They include ^19F-R8 bound to GAG or cell membrane, and ^19F-R8 in cytosol. We separated these components as the supernatant III and the pellet III by centrifuging the Lysate at 100,000× g. Supernatant III consists of ^19F-R8 in cytosol, and pellet III contains ^19F-R8 bound to GAG or cell membrane (referred as Membrane); see Scheme 1. […] It should be noted that the observed chemical shift of NMR signal in this system is too complicated to understand. For example, the cell solubilization exposes ^19F-R8 to numerous molecules derived from cells. Also, the cytosol fraction was obtained by lyophilization of 50 mL lysis buffer A. This leads to the increased concentrations of components (Triton X-100, Tris-HCl, EDTA, NaCl in lysis buffer A) in the final sample to be measured. The condition of the solvent such as ionic strength and pH affects the chemical shift of ^19F-R8 NMR signal. Thus the integral NMR intensity is useful for the steady state NMR spectra because it is basically proportional to the nuclear concentration.
The amount of ^19F-R8 finally delivered to the cytosol was quantified by ^19F NMR under equilibrium in combination with the cell fractionation using membrane solubilization and centrifugation. The cell fractionation procedures are summarized in Scheme 1. After the real-time ^19F NMR measurement, 4 mL of the sample were centrifuged at 1500× g for 5 min at 4 °C. Pellet I was washed twice with 4 mL of PBS and centrifuged again. Then the 8 mL of supernatant I was collected and subject to ^19F NMR measurement at 4 °C, to quantify free ^19F-R8. Next, 4 mL of lysis buffer A (1% Triton X-100, 50 mM Tris-HCl, 50 mM EDTA, 150 mM NaCl, 10% D2O) was added to pellet I, and left for 15 min on ice to complete the cell membrane solubilization. The solution was centrifuged at 15,000× g for 15 min at 4 °C, to separate pellet II and supernatant II. Then, supernatant II was collected and subjected to ^19F NMR measurement at 4 °C (called Lysate). After measurement, 50 mL of lysis buffer A was added and centrifuged at 100,000× g for 3 h at 4 °C. […]

HL60 cells [2] = system: HL60 cells
Protocol: (§1) One-dimensional in-cell ^19F NMR measurements were carried out at 376.2 MHz by using a JEOL ECA400 NMR spectrometer equipped with a superconducting magnet of 9.4 T. A multinuclear probe (JEOL, NM40T10A/AT) for a 10-mm diameter tube was used. Detailed procedures of the measurement are described elsewhere. Briefly, HL60 cells (the final concentration, 1 × 10^7 cells/mL) were suspended in phosphate-buffered saline (PBS, pH 7.4) at 4 °C and put into a NMR tube. In order to confirm no contribution of energy-dependent endocytosis at 4 °C, the comparative measurement was also performed at 37 °C. To avoid cellular toxicity, the amount of D2O used for the signal lock was decreased to 10%. The sample was gently rotated to prevent the sedimentation of the cells. Field-gradient shimming was applied before the addition of the peptide, to quickly attain the spectral resolution. The measurements started immediately after the thermal equilibrium was attained, 1.5 min after the addition of the ^19F-labeled peptides. […] Cell viability, assessed by the trypan blue staining after the NMR measurement at 4 °C, was 92% ± 1% for ^19F-R8 and 94% ± 1% for ^19F-T6 with respect to the control value, 94% ± 2%. […]
Cell peptide concentrations inside and outside were estimated by using the signal intensities of real-time ^19F NMR difference spectra in Figure 2b. Figure A1 illustrates how peptide concentrations were determined from the ^19F NMR spectra. […]
The concentration of these three components can be evaluated from the signal intensities by integrating the respective peak areas. […] Since the total ^19F-R8 concentration is 80 μM, the concentrations of free, bound to GAG, and membrane components are calculated to be […], 9, and 5 μM, respectively.
Figure A1 Illustration of the signal intensity estimation in the ^19F NMR difference spectrum. […] The concentration of these three components can be evaluated from the signal intensities by integrating the respective peak areas (see text).

HL60 cells [3] = conditions: 100 μM
Protocol: as §1, with “peptides. The final concentrations of ^19F-R8 and ^19F-T6 were 80 μM and 100 μM, respectively, and these were high enough to observe non-endocytic translocation.” for “peptides.”

CC(=O)N[C@@H](Cc1ccc(C(F)(F)F)cc1)C(=O)N[C@@H](CCCNC(=N)N)C(=O)N[C@@H](CCCNC(=N)N)C(=O)N[C@@H](CCCNC(=N)N)C(=O)N[C@@H](CCCNC(=N)N)C(=O)N[C@@H](CCCNC(=N)N)C(=O)N[C@@H](CCCNC(=N)N)C(=O)N[C@@H](CCCNC(=N)N)C(=O)N[C@@H](CCCNC(=N)N)C(N)=O [^19F-R8]
peptide in a free state (supernatant I) under equilibrium (HL60 cells [1]; HL60, after real-time NMR at 4 °C, centrifugation 1500× g, pH 7.4, versus total peptide): 77% | peptide in cytosol fraction (supernatant III) (HL60 cells [1]; Lysate centrifuged at 100,000× g): observed in the cytosol fraction | peptide in membrane fraction (pellet III) (HL60 cells [1]; Lysate centrifuged at 100,000× g, equilibrium state): within the experimental error | peptide detected in Lysate (supernatant II), of the initial peptide (HL60 cells [1]; pellet I solubilized with 1% Triton X-100 lysis buffer, 15,000× g, pH 7.5): 13% | peptide in DNA and cytoskeleton fraction (pellet II) (HL60 cells [1]; pellet II solubilized): not yet detectable | time at which transfer to cytosol was first observed (HL60 cells [2]; HL60, PBS pH 7.4, 4 °C, 80 μM peptide): around 5 min | degradation of peptide in the presence of HL60 cells (integral 19F NMR intensity) (HL60 cells [2]; pH 7.4): no degradation

CC[C@H](C)[C@H](NC(=O)CNC(=O)[C@H](CO)NC(=O)[C@H](CC(=O)O)NC(=O)[C@H](Cc1ccc(C(F)(F)F)cc1)NC(=O)[C@@H](NC(=O)[C@@H](N)[C@@H](C)O)C(C)C)C(=O)N[C@@H](CO)C(=O)N[C@@H](CCC(=O)O)C(=O)N[C@H](C(=O)N[C@@H](CCCNC(=N)N)C(=O)O)C(C)C [^19F-T6, reference compound] (H-TV[Phe(4-CF3)]DSGISEVR-OH)
interaction with HL60 cells (change of 19F NMR and difference spectrum) (HL60 cells [2]): no interaction occurs | Cell viability (HL60 cells [3]): 94% ± 1%
